Key:
[1] = system: advanced urothelial carcinoma; conditions: luminal 1 subtype compared with other bladder cancer subtypes; cited from earlier work
[2] = system: CD38+ T cells in peripheral blood; experiment: BLC2002 phase 1b immune cell profiling of blood by flow cytometry (T cell activation); format: in vivo, human; conditions: FIG. 4c; E8RJ cohort at C1D15, erdafitinib treatment alone (run-in)
Method: Blood for immune cell profiling were collected at four time points (C1D1, C1D15, C2D1 and C3D1) and subjected to flow cytometry analysis on a real time basis. T cell activation is quantified as fold increase in the proportions of 1) CD38+CD3, CD38+CD4, or CD38+CD8 T cells out of lymphocytes or CD3 T cell populations, and 2) CD38+ cells out of CD4+ or CD8+T cell populations, compared to the baseline proportion levels at C1D1.
Longitudinal blood samples were analyzed from DL2A (E8J cohort: Erda 8 mg+cetrelimab 240 mg), DL2B (E8RJ cohort: Erda 8 mg 28 days run-in +cetrelimab 240 mg), and DL2 (EJ cohort: Erda 8 mg with the potential dose adjustments to 9 mg depending on phosphate levels measured on C1D15+cetrelimab 240 mg).

Molecule | response rate by bladder cancer molecular subtype [1] | proportion of CD38+CD8 T cells compared to baseline C1D1 [2]
nivolumab: checkpoint inhibitor; antibody that blocks the interaction between PD-1 and PD-L1 | lowest response rate | –
atezolizumab: checkpoint inhibitor; antibody that blocks the interaction between PD-1 and PD-L1 | lowest response rate | –
COc1cc(OC)cc(N(CCNC(C)C)c2ccc3ncc(-c4cnn(C)c4)nc3c2)c1 [erdafitinib, N-(3,5-dimethoxyphenyl)-N′-(1-methylethyl)-N-[3-(1-methyl-1H-pyrazol-4-yl)quinoxalin-6-yl]ethane-1,2-diamine] | – | dramatically increased

— patent publication US20220348662A1, “USE OF FGFR INHIBITORS IN FGFR-GENETICALLY ALTERED CANCERS TO ENHANCE PATIENT RESPONSE TO IMMUNE CHECKPOINT INHIBITORS IN SEQUENTIAL TREATMENT SETTINGS” (JANSSEN PHARMACEUTICA NV, priority 2019, published 2022)
